In patent US9101628B2, “Methods and composition of treating a flaviviridae family viral infection” (The Board of Trustees of the Leland Stanford Junior …, priority 2007, dated 2015):
“Also recorded” adds a separate entry of the source. Structures can show the parent of a compound that is named as a salt. Where two headings read alike, the source gives them in different places.

How the values were obtained:
hERG channel [1] = molecular target: T1, hERG channel (Homo sapiens, UniProt Q12809); assay: HERG channel assay (whole cell recordings, CHO cell line expressing hERG)
[2] = system: replicon harboring the A156T mutation; assay: Whole cell RNA electroporation, SCH503034 resistant clone; assay type: cell-based, HCV
Huh7.5 cells = assay: Alamar Blue-based cell viability assay; design: species or system human
Experimental: (§1) Total volume per well is 100 μl.
(§2) (or until there is a color change).

[3] = Alamar Blue-based cell viability assay; design: species or system human; settings: human
Experimental: as §1, §2

[4] = system: full-length J6/JFH (genotype 2a) HCV RNA genome; assay: microbe, parasite or virus in culture; assay type: cell-based; settings: for EC50: Hepatitis C virus, Huh7.5, 72 h, read-out: EC50 HCV replication, genotype 2a luciferase reporter, Huh7.5 cells, 72 hr
Experimental: In such assays, luciferase activity is directly proportional to HCV RNA genome replication.
The in vivo antiviral effect on HCV RNA replication of the inhibitory compounds identified in the above screen was measured. Following electroporation with a full-length HCV RNA genome harboring a luciferase reporter gene, Huh7.5 cells were grown in the presence of increasing concentrations of these compounds. Luciferase assays were performed at 72 hr. In parallel, the viability of cells in the presence of the compounds was assessed by an Alamar Blue-based assay.
Huh-7.5 cells were maintained in Dulbecco's modified minimal essential medium (Gibco) supplemented with 1% L-glutamine (Gibco), 1% penicillin, 1% streptomycin (Gibco), 1× nonessential amino acids (Gibco) and 10% fetal bovine serum (Omega Scientific). Cell lines were passaged twice weekly after treatment with 0.05% trypsin-0.02% EDTA and seeding at a dilution of 1:5. Subconfluent Huh-7.5 cells were trypsinized and collected by centrifugation at 700 g for 5 min. The cells were then washed three times in ice-cold RNase-free PBS (BioWhittaker) and resuspended at 1.5*10^7 cells/ml in PBS. Wild type or mutant FL-J6/JFH-5′C19Rluc2AUbi RNA for electroporation was generated by in vitro transcription of XbaI-linearized DNA templates using the T7 MEGAscript kit (Ambion), followed by purification, essentially as described above (In vitro RNA transcription and fluorescent labeling). 5 μg of RNA was mixed with 400 μl of washed Huh-7.5 cells in a 2 mm-gap cuvette (BTX) and immediately pulsed (0.82 kV, five 99 μs pulses) with a BTX-830 electroporator. After a 10 min recovery at 25° C., pulsed cells were diluted into 10 ml of prewarmed growth medium. Cells from several electroporations were pooled to a common a stock and seeded in 6 well plates (5*10^5 cells per well). After 24 hr, medium was replaced and cells were grown in the presence of serial dilutions of the various inhibitory compounds (Sigma) identified in the screen. […] Untreated cells were used as a negative control for water soluble compounds. For compounds solubilized in DMSO, untreated cells were grown in the presence of corresponding concentrations of the solvent as a negative control. Medium was changed daily. After 72 hr of treatment, cells were subjected to an alamar blue based viability assay and luciferase assay.
The experiment was repeated four times, each time with triplicates.
Following electroporation with a full-length J6/JFH (genotype 2a) HCV RNA genome harboring a luciferase reporter gene, Huh7.5 cells were grown in the presence of various concentrations of the individual compounds and their combinations. Luciferase assays were performed at 72 hr.

[5] = system: replicon harboring the W55R mutation; assay: Whole cell RNA electroporation, clemizole resistant clone; assay type: cell-based, HCV; settings: 10 μM clemizole; 2.5 μM SCH503034
Experimental: Whole cell RNA was extracted from clemizole-resistant replicon clones and from untreated replicon cells using TRIzol reagent (Invitrogen). Equal amounts of whole cell RNA (50 μg) were electroporated into Huh7.5 cells as described above. Cells were grown under G418 selection in the presence or absence of clemizole for 3 weeks. The number of colonies was determined using Image J (NIH) following fixation and staining with Crystal violet.
Cells transfected with whole cell RNA extracted from wild type replicon cells were sensitive to both drugs.

[6] = system: subgenomic Bart 79I HCV RNA replicon (genotype 1b); assay: microbe, parasite or virus in culture; assay type: cell-based; settings: Hepatitis C virus; genotype 1b luciferase reporter, 72 hr; read-out: EC50 HCV replication
HCV (genotype 4) = assay: Treatment of patients chronically infected with HCV; assay type: in vivo, human; settings: clemizole 100 milligrams p.o. BID alone, 4 weeks, 3 patients
Experimental: After the first four weeks of clemizole monotherapy, pegylated interferon (180 micrograms Pegasus (Roche) s.q. per week) was added.

W55R mutant J6/JFH RNA = assay: Luciferase reporter-linked replication assay, W55R mutant; assay type: cell-based, HCV
Text: Two of the clemizole-resistant NS4B mutants were characterized in detail. The first, W55R is depicted in FIG. 6a. It involves the substitution of an arginine for the tryptophan at amino acid 55 within a predicted cytoplasmically-oriented segment of NS4B. This mutation is sufficient to confer a clemizole-resistant phenotype in cells: Huh7.5 cells transfected with either whole cell RNA extracted from the W55R mutant cells (FIG. 6b) or with in vitro-transcribed J6/JFH RNA encoding this point mutation and a linked luciferase reporter gene (FIG. 6c) were unaffected by 10 μM clemizole.
The plasmid FL-J6/JFH-5′C19Rluc2AUbi that consists of the full-length HCV genome and expresses Renilla luciferase was a gift from Dr. Charles M. Rice. The W55R mutation was introduced into this plasmid by site-directed mutagenesis (using the QuikChange kit (Stratagene)).
Medium was changed daily.

W55R NS4B mutant = molecular target: T2, W55R NS4B mutant (Hepatitis C virus genotype 1a, UniProt P27958, A1893V/D1840G/F1898S/L1839I/R1905H/S1900A/W1766R); assay: In vitro microfluidic RNA binding assay, W55R NS4B mutant; design: species or system HCV; settings: 10 nM clemizole
T2 construct: made in house; host or cells: in vitro transcription/translation, inferred from the way wild-type NS4B-GFP was made; not repeated for the mutant

HuR = molecular target: T3, HuR (Homo sapiens, UniProt Q15717); assay: HuR RNA binding by microfluidics (specificity of hits); settings: 0.1 mM
T3 construct: The open reading frames (ORF) of HuR and HuD were obtained from the ORFeome library of cDNA clones (Open biosystems); V5-his (C); made in house; host or cells: cell-free expression on the microfluidic device, from pcDNA-Dest 40 carrying the ORFeome clone (Open Biosystems)
Experimental: Specificity of hits identified in the small molecule screen: To determine the specificity of the hits identified in the small molecule screen, the HuR protein (one of the human RNA binding protein used to validate our RNA binding assay) was selected. […] Binding of HuR to the consensus 4A RNA sequence was tested in the presence of the inhibitory molecules shown to inhibit RNA binding by NS4B. […] Similarly, 0.1 mM of the identified compounds didn't have an inhibitory effect on binding of HuR to the 3′ terminus of the negative HCV RNA strand.

[7] = system: genotype 1b subgenomic HCV replicon (Bart 79I); assay type: cell-based
[8] = system: infectious HCV clone (J6/JFH); assay: Real-time PCR assay of HCV replication in HCV-infected Huh7.5 cells; assay type: cell-based; settings: real-time PCR (FIG. 8)
Experimental: 5×10^4 Huh7.5 ells were infected with cell culture-grown HCV titered at 1.4×10^4 TCID50/ml, as described. 2 hours after infection, cells were washed three times in culture medium. Cells were then treated daily with various concentrations of clemizole. After 72 hours, samples were subjected to the viability assay described above, following which TRIzol Reagent (Invitrogen) was added and total cell RNA was extracted in triplicates according to the manufacturer's instructions. Reverse transcription was then performed using random hexamers and Superscript II reverse transcriptase (Invitrogen, Carlsbad, Calif.). Real-time PCR was performed on the resulting cDNA to quantify the amounts of HCV and actin RNA (in separate reactions) in each sample. Standards were made using an in vitro-transcribed HCV RNA and human actin standard (Applied Biosystems, Foster City, Calif.). HCV was quantified using primers […] (SEQ ID NO 8) and […] (SEQ ID NO 9) and probe 6-carboxyfluorescein-[…]-6 (SEQ ID NO 10) carboxytetramethylrhodamine. Actin was quantified using beta-actin control reagents (Applied Biosystems) according to the manufacturer's instructions. HCV RNA level was adjusted to actin level and normalized relative to untreated samples.

R214Q NS4B mutant HCV = assay: Luciferase reporter linked replication assay, R214Q mutant; assay type: cell-based
[9] = molecular target: NS4B (binding to 3′ terminus negative strand HCV RNA) (Hepatitis C virus genotype 1a, UniProt P27958); assay: In vitro microfluidic NS4B RNA binding assay; settings: wild type NS4B, 10 nM clemizole
HCV = settings: cited from earlier work
hERG channel [10] = molecular target: T1, hERG channel
[11] = genotype 1b experiments, Alamar Blue, 72 hr

## O=c1ccc(-c2nc3cc(Cl)c(Cl)cc3n2Cc2ccc(Cl)c(Cl)c2)c[nH]1 [Compound 167]
hERG channel [1]; read-out: HERG IC50, CHO cell line stably expressing hERG
  IC50: > 1 µM

## CC(C)(C)NC(=O)N[C@H](C(=O)N1C[C@H]2[C@@H]([C@H]1C(=O)NC(CC1CCC1)C(=O)C(N)=O)C2(C)C)C(C)(C)C (stereo partly shown) [SCH503034, boceprevir]
[2]
  sensitivity of Huh7.5 cells transfected with whole cell RNA from A156T clone: decreased sensitivity
Huh7.5 cells; [11]
  CC50: > 100 µM
[3]; Huh7.5 cells, genotype 2a experiments, Alamar Blue-based and CellTiter-Blue assay
  CC50 at 72 h: > 100 µM
[4]
  EC50: 0.8 µM
[4]; SCH503034 alone at 2.5 μM
  decrease of viral replication: ~1 log
  viral replication relative to 1, untreated: 0.08
[5]
  sensitivity of Huh7.5 cells transfected with whole cell RNA from W55R clone: remained sensitive
[6]
  EC50: ~0.21 µM

## Clc1ccc(Cn2c(CN3CCCC3)nc3ccccc32)cc1 [clemizole]
[2]
  sensitivity of Huh7.5 cells transfected with whole cell RNA from A156T clone: but not to clemizole
HCV (genotype 4)
  HCV viral loads in serum: decreased significantly
Huh7.5 cells; at antiviral concentrations, Alamar Blue, 72 hr
  cellular toxicity: no measurable toxicity
[3]; [11]
  CC50 at 72 h: 40 ± 5 µM
[3]; genotype 2a experiments, Alamar Blue-based and CellTiter-Blue assay
  CC50 at 72 h: 35 ± 0.5 µM
W55R mutant J6/JFH RNA; 10 μM clemizole
  effect on replication of W55R mutant: unaffected
W55R mutant J6/JFH RNA; W55R mutant
  EC50 relative to the EC50 on the wild type RNA: 2.25 times
W55R NS4B mutant
  reduction of RNA binding: ~2 fold
[5]
  sensitivity of Huh7.5 cells transfected with whole cell RNA from W55R clone: unaffected
HuR
  effect on binding of HuR to 4A RNA sequence: No inhibitory effect
[7]; 4 μM clemizole added
  decrease of the frequency of resistant colonies selected with 1 μM of SCH503034: 6 folds
[7]; 8 μM clemizole added
  decrease of the frequency of resistant colonies selected with 1 μM of SCH503034: 18 folds
[6]
  EC50: 23 ± 7 µM
[8]
  HCV replication levels: inhibits HCV replication
R214Q NS4B mutant HCV
  EC50 relative to the EC50 on the wild type RNA: ~5 times
[9]
  reduction of RNA binding: ~2 fold

## CCC[C@H](NC(=O)[C@@H]1[C@H]2CCC[C@H]2CN1C(=O)[C@@H](NC(=O)[C@@H](NC(=O)c1cnccn1)C1CCCCC1)C(C)(C)C)C(=O)C(=O)NC1CC1 [VX-950, telaprevir]
HCV; different assay and 1b genotype, read-out: EC50 reported by others
  EC50: 0.354 to 0.56 µM
[4]
  EC50: ~0.3 µM

## COc1ccc(Cn2cnc3c(NS(C)(=O)=O)c(C)c(C)cc32)cc1 [Compound 106]
hERG channel [10]
  IC50: > 10 µM

## Cc1ccc2c(c1)nc(CN1CCCCC1)n2Cc1ccc(Cl)cc1 [Compound 184]
hERG channel [1]; human, CHO cells stably expressing hERG
  IC50: > 1 µM

## Clc1ccc(Cn2c(CN3CCCC3)nc3ccccc32)cc1 [Clemizole hydrochloride, clemizole hydrochloride]
Huh7.5 cells; at antiviral concentrations, Alamar Blue, 72 hr, hydrochloride
  cellular toxicity: no measurable cellular toxicity
Huh7.5 cells; human, 72 h
  cellular toxicity: little toxicity
[4]; 20 μM, 72 hr
  decrease in viral replication: tenfold

## CC(C)[C@H](N)C(=O)O[C@@H]1[C@@H](CO)O[C@@H](n2ccc(N)nc2=O)[C@]1(C)O [NM283, valopicitabine]
[4]
  EC50: 1.16 ± 0.2 µM

## CNC(=O)c1c(-c2ccc(F)cc2)oc2cc(N(CCO)S(C)(=O)=O)c(C3CC3)cc12 [HCV 796, HCV-796]
HCV; read-out: EC50 reported value
  EC50: 0.017 µM
[4]
  EC50: 0.068 ± 0.008 µM

## O=C(O)C1=CC(=C(c2ccc(O)c(C(=O)O)c2)c2ccc(O)c(C(=O)O)c2)C=CC1=O [ATA]
HuR
  effect on binding of HuR to 4A RNA sequence: affected; also recorded: significantly inhibited
  effect on binding of HuR to the 3′ terminus of the negative HCV RNA strand: significantly inhibited
